Assay [1] concerns mtDNA-depleted (Rho^0) SH-SY5Y cells. The assay is described as follows: Humanin induction in mtDNA-depleted Rho0 cells (PCR, western blot). In kind it is cell-based, human. As to conditions: Rho0 cells devoid of mtDNA; HN 20 μM, 24 h; conventional PCR and western blot. On the procedure:
For generating SH-SY5Y Rho^0 cells depleted of mitochondrial DNA, we treated the cells with ethidium bromide (0.5 μg/ml) (Sigma-Aldrich) for 2 months as described previously. SH-SY5Y Rho^0 cells were grown in the same culture medium but supplemented with an additional 50 μg/ml of uridine and 100 μg/ml of pyruvate to support cell growth.
(§1) Mouse brain tissue samples and cells were homogenized in radioimmunoprecipitation assay (RIPA) buffer (Cell Signaling, Danvers, MA, USA) in the presence of a protease and phosphatase inhibitor cocktail (Thermo Fisher Scientific). The samples were sonicated on ice, and the supernatant was collected after centrifugation at 4°C at 10,000 g for 5 min. The protein samples were loaded and separated using Tris-glycine SDS-PAGE. To detect the HN peptide, the proteins were separated into three layers of tricine SDS-PAGE, as previously described. The separated proteins were transferred to nitrocellulose membranes (GenDEPOT, Barker, TX, USA). The membranes were blocked for 0.5 h, followed by incubation with appropriate primary antibodies overnight at 4°C. […] The results were analyzed using the ImageJ densitometry system. […]
The loss of mtDNA in SH-SY5Y Rho^0 cells was determined by standard PCR with three pairs of primers (Table S1), two specifically for mtDNA (mt-ND4, humanin) and one specifically for nuclear DNA (ATP5PB). […]
Background: Immunoblotting shows a protein as a band on a membrane.

A further assay relates to MPTP mouse model of PD. The assay is described as follows: MPTP mouse model of PD, intranasal HN. In kind it is in vivo. As to conditions: intranasal HN 0.1 and 5 mg/kg. As for the experimental part: A mouse model of PD was generated using the neurotoxin MPTP-HCl (Sigma-Aldrich, St. Louis, MO, USA), as previously described. Seven- to eight-week-old male C57BL/6J mice were injected with MPTP (20 mg/kg/day) for five consecutive days for the subacute delivery of MPTP. The mice in the control group received the same volume of phosphate buffer saline (PBS).
For intranasal HN treatment, the synthetic HN peptide was delivered according to a procedure reported by Capsoni et al. The synthetic HN peptide was diluted in ddH2O to a concentration of 0.1 and 5 mg/kg for mice (total volume of 40 μL) at 37 ℃ with mild stirring. The mice were held firmly in one hand in a supine position with their head at 90°. Synthetic HN was administered in the form of 5-μL drops over 20 min in alternating nostrils every 3 min. After administration, the heads of the mice were held in the same position to prevent loss of the applied solution from the nares.
To stain the mouse brain tissue samples, transcardial perfusion was performed using PBS and 4% paraformaldehyde in PBS. The brain and trigeminal ganglia were removed, post-fixed using 4% paraformaldehyde in PBS, and stored in a 30% sucrose solution at 4 ℃ until they sank. Coronal sections were prepared (thickness: 10 µm) using a sliding microtome. After blocking with 5% BSA, the samples were incubated with the appropriate primary antibody as mentioned above. After incubation with the primary antibodies, the tissue samples were incubated with Alexa Fluor 594- or 488-conjugated antibodies (Thermo Fisher Scientific) for immunofluorescence or with secondary biotinylated anti-rabbit IgG (H+L) (Vector Laboratories, Burlingame, CA, USA) for immunohistochemistry. […] Mitochondrial network morphology was further assessed using the FIJI/ImageJ software as described previously.
Mouse brain tissue samples and cells were homogenized in radioimmunoprecipitation assay (RIPA) buffer (Cell Signaling, Danvers, MA, USA) in the presence of a protease and phosphatase inhibitor cocktail (Thermo Fisher Scientific). […] The results were analyzed using the ImageJ densitometry system. […]

Another assay concerns SH-SY5Y cells. The assay is described as follows: HN-induced intracellular humanin expression, western blot, SH-SY5Y. In kind it is cell-based, human. To be noted: HN treatment 24 h, several doses, basal humanin undetectable. As for the experimental part:
The SH-SY5Y human neuroblastoma cell line and PC12 rat pheochromocytoma cell line were purchased from the Korean Cell Line Bank (Seoul, South Korea). Undifferentiated SH-SY5Y cells were grown in Dulbecco's modified Eagle's medium nutrient mixture F-12 (DMEM/F12; Thermo Fisher Scientific) supplemented with 10% FBS and 1% P/S. Undifferentiated PC12 cells were grown in DMEM (Thermo Fisher Scientific) supplemented with 5% FBS, 5% horse serum, and 1% P/S on poly-D-lysine (PDL, Sigma-Aldrich) plates.
For HN treatment of cells, HN stock solution was first incubated at 37 ℃ with mild stirring for 0.5 h. The solution was then added to the culture medium to achieve a desirable final concentration as described above.
as §1, with “described.” for “described. The separated proteins were transferred to nitrocellulose membranes (GenDEPOT, Barker, TX, USA). The membranes were blocked for 0.5 h, followed by incubation with appropriate primary antibodies overnight at 4°C.”

With “humanin (MAPRGFSCLLLLTSEIDLPVKRRA; Humanin; UniProt Q8IVG9 1-24, looked up) [HN, mitochondria-derived peptide encoded by the mitochondrial genome, synthesized by Fmoc-based SPPS at GL Biochem]”, the “induction of intracellular humanin by HN peptide” value in assay [1] is “abolished”. The “motor function, pole test” value in the assay with MPTP mouse model of PD (MPTP 20 mg/kg/day for 5 days) is reported as “steady motor improvements in a dose-dependent manner”. Besides, the “TH expression, dopaminergic neurons of substantia nigra pars compacta” value in the assay with MPTP mouse model of PD (dose-dependent, TH staining, stereology) is “significantly restored TH expression”. For the same substance, the “TH protein in striatum lysates, western blot” value in the assay with MPTP mouse model of PD (three independent blots) is reported as “confirmed the impact of intranasal delivery of HN on protecting TH^+ dopaminergic neurons”. The intracellular humanin expression result in the assay on SH-SY5Y cells was “induced its intracellular expression in a dose-dependent manner”.
